Reference: US20220233512A1, “INHIBITING AN IMMUNE RESPONSE MEDIATED BY ONE OR MORE OF TLR2, RAGE, CCR5, CXCR4 AND CD4” (priority 2020, published 2022)

Columns and labels:
mu opiate receptor (MOR) = biological target: T1, mu opiate receptor (MOR) (Rattus norvegicus, UniProt P33535); assay: MOR agonist activity using [35S]GTPgS binding assay in striatal membranes; assay type: biochemical; conditions: Series C-2 table
T1 construct: from tissue; host or cells: striatum (membrane preparation)
In short: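 Rat striatal membranes incubated 5 min at 30 °C in pH 7.5 HEPES buffer with 100 mM NaCl, 1 mM MgCl2 and 0.5 nM [35S]GTPgS, then 5 min with compound. Gαo-bound [35S]GTPgS isolated by immunoprecipitation and counted by liquid scintillation.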

tau = assay: Tau phosphorylation in human postmortem frontal cortex slices; assay type: cell-based; conditions: 1 or 10 nM compound
Description: As will be seen from examination of FIG. 3 and FIG. 4, the ratio of TLR2 to FLNA increased with administration of each of LTA-SA, PGN-SA and Ab42 at a statistically significant amount relative to the control (p<0.01). Those changes in expression of TLR2 relative to FLNA were each inhibited by the presence of the 1 or 10 nM Compound C0105 at a statistically significant amount relative to the control (p<0.01) and relative to the ligand used. See, FIG. 3B.
A slight inhibition (about 25% or less) of that enhanced tau phosphorylation was provided by contacting the cells with 1 or 10 nM Compound C0105. […] See, FIGS. 4A and 4B.
The levels of phosphorylated tau (pSer202tau, pThr231tau and pThr181tau) as well as total tau precipitated (loading controls) are assessed by Western blotting using specific antibodies directed against each of the phosphor-epitopes and the anti-tau, respectively.

[1] = biological target: FLNA interactions with CXCR4, CD4 and CCR5 (Homo sapiens, UniProt P21333); assay: FLNA interactions with CXCR4, CD4 and CCR5 in lymphocytes (western blot); conditions: 1 nM; lymphocytes of Ab42-treated young control subject and of AD patient
FLNA interactions with CXCR4, CD4 and CCR5, sequence (P21333 2-2647 limits assumed): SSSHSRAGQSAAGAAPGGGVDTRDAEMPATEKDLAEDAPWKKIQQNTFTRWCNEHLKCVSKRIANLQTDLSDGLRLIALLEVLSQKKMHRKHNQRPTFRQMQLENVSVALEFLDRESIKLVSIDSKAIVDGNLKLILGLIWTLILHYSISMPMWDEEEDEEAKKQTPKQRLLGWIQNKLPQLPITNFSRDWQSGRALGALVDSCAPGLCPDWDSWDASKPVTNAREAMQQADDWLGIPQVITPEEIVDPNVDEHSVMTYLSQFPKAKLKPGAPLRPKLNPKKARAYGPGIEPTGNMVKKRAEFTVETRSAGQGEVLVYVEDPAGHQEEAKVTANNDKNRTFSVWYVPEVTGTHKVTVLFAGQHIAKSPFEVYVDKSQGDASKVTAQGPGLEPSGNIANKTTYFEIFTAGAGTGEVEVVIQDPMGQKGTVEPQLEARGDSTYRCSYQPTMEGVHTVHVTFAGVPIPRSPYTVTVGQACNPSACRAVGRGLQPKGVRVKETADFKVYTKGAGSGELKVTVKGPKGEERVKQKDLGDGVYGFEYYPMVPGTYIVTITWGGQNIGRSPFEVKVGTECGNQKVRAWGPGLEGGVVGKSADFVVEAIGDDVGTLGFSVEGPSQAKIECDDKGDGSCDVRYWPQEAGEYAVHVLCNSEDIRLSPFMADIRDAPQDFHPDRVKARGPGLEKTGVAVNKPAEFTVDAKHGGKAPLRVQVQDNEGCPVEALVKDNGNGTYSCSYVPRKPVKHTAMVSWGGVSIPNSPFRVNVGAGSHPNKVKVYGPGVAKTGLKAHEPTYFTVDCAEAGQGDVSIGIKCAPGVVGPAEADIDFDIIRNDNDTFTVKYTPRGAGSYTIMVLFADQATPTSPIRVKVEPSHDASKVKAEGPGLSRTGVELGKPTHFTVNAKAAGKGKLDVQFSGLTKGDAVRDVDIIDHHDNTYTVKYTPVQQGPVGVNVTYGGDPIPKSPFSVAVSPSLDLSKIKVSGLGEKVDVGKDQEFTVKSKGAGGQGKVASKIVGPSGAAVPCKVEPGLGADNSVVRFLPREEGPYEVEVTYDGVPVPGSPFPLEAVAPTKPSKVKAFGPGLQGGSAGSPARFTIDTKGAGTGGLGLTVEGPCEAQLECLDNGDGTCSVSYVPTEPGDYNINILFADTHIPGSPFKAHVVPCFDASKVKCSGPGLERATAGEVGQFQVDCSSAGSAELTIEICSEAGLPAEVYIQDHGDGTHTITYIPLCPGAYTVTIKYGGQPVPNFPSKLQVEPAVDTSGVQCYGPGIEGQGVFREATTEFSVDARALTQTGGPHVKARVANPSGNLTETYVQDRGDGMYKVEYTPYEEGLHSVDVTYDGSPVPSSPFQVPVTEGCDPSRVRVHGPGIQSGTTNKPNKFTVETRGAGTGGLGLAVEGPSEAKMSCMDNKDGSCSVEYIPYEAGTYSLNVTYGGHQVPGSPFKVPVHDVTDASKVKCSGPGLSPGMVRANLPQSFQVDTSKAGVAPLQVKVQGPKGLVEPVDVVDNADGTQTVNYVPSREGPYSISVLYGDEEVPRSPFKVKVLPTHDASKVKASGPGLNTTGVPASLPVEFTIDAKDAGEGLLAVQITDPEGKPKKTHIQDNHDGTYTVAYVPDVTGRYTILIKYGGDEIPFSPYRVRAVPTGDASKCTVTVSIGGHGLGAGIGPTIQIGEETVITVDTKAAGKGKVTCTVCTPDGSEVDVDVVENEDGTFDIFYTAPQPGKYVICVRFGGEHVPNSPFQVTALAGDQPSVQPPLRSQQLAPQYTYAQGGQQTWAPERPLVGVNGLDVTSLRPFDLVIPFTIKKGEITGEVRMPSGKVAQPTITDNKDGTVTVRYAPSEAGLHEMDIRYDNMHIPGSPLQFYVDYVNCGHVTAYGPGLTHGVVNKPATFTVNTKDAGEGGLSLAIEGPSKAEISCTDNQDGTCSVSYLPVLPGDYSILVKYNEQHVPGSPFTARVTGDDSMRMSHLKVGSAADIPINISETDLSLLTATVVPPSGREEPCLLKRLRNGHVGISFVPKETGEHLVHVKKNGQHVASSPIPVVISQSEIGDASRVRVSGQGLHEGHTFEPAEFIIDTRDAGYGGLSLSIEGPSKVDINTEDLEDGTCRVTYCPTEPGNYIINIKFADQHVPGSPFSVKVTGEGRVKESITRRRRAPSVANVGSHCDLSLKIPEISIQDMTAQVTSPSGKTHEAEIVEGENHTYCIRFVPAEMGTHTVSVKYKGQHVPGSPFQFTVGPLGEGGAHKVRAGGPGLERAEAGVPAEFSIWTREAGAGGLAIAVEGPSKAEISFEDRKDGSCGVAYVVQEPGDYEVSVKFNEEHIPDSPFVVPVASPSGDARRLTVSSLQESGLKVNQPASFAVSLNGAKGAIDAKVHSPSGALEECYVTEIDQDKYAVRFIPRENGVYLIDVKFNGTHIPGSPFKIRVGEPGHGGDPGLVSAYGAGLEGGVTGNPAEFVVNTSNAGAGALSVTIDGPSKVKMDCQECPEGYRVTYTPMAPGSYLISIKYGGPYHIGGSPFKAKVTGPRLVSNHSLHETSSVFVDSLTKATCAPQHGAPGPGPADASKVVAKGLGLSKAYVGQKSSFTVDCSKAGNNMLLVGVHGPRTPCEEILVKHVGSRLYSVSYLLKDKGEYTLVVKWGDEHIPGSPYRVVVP

T1 sequence (P33535 whole entry): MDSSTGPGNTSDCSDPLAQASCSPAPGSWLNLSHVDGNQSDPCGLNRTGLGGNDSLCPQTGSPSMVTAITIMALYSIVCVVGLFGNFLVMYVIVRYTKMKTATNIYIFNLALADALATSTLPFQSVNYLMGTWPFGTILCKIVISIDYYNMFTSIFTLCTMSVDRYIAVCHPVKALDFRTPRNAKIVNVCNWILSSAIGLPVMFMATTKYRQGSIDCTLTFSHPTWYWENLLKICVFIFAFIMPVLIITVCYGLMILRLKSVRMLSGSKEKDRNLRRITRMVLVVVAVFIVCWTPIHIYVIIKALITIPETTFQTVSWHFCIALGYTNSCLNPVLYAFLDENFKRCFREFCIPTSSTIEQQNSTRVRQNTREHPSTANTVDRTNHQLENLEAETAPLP

SMILES: CN1CCC2(CC1)NCC(=O)N2Cc1ccccc1 [Compound C0105M]
- MOR agonist activity ([35S]GTPgS binding to Gao) (mu opiate receptor (MOR); 0.1 μM compound as agonist): 198.1%
- MOR agonist activity ([35S]GTPgS binding to Gao) (mu opiate receptor (MOR); 1 μM + BFNA): 73.1%
- MOR agonist activity ([35S]GTPgS binding to Gao) (mu opiate receptor (MOR); 1 μM compound as agonist): 220.3%
- Inhibition of LTA-SA- or PGN-SA-enhanced tau phosphorylation (tau): ≤ 25%
- Ab42-induced tau phosphorylation (in words) (tau; 0.1 micromolar Ab42): statistically significant reduction
- FLNA linkages with CXCR4, CD4 and CCR5 (in words) [1]: reduced these linkages
